Numbered stars: 1 amine (or outer) side, 2 acyl side, 3 side chain; on linkers, the order of the positions; unused ones are H or OH. Bridge positions count the residues as written; N and C are the ends. Square brackets hold non-standard residues; d marks the D form. Peptide text beside a SMILES is read from it. X1 = O=S(=O)(F)Oc1cc(C[*:1])cc(C[*:2])c1; X2 = Oc1cc(C[*:1])cc(C[*:2])c1; Pra = C#CC[C@H](N)C(=O)O

Broadly, the EC50 is the concentration that produces a half-maximal response. Read a low EC50 as greater potency.

In experiment [1] the test system is interaction between Omicron BA2 spike and ACE2. The class given is binding, SARS-CoV-2.
The target of a further experiment is BSA (Bos taurus, UniProt P02769). Format: binding. The settings on record: highest concentration tested.
The test system of the next experiment is SARS-CoV-2 omicron BA.2. The class given is cell-based.

BSA, sequence (P02769 25-607): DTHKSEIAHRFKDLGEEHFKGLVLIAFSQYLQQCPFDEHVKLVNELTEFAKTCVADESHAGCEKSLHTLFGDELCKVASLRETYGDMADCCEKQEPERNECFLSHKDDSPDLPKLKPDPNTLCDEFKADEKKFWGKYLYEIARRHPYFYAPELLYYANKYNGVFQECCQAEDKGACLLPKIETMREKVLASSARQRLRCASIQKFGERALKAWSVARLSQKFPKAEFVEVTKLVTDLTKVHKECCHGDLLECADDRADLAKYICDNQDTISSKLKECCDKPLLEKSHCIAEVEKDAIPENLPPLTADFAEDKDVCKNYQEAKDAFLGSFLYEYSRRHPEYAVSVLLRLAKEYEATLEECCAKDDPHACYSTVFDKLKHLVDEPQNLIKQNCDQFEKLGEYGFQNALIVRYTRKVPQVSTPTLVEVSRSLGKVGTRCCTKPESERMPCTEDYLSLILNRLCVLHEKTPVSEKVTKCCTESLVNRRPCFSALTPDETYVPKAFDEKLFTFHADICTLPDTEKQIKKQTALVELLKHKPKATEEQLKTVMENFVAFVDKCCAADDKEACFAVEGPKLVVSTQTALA

Regarding `C#CC[C@H](N)C(=O)N[C@@H](CCC(N)=O)C(=O)N[C@H]1CSCc2cc(cc(OS(=O)(=O)F)c2)CSC[C@@H](C(=O)NCC(N)=O)NC(=O)[C@H](CC(C)C)NC(=O)[C@H](C(C)C)NC(=O)[C@H](Cc2ccc(O)cc2)NC(=O)[C@H](CC(C)C)NC(=O)[C@H](CC(=O)O)NC(=O)[C@H](CCC(N)=O)NC(=O)[C@H](C(C)C)NC1=O` [CP_SW3A] (H-[Pra]QCVQDLYVLCG-NH2; linker 3-11 via X1), the “inhibition activity in MSD assay” value in experiment [1] is “strong activity”. In addition, on BSA, the “labeling of BSA” value is reported as “only faint labeling”.
As for `C#CC[C@H](N)C(=O)N[C@@H](CCC(N)=O)C(=O)N[C@H]1CSCc2cc(O)cc(c2)CSC[C@@H](C(=O)NCC(N)=O)NC(=O)[C@H](CC(C)C)NC(=O)[C@H](C(C)C)NC(=O)[C@H](Cc2ccc(O)cc2)NC(=O)[C@H](CC(C)C)NC(=O)[C@H](CC(=O)O)NC(=O)[C@H](CCC(N)=O)NC(=O)[C@H](C(C)C)NC1=O` [CP_SW3A_Bz] (H-[Pra]QCVQDLYVLCG-NH2; linker 3-11 via X2), the “antiviral activity” value in the experiment with SARS-CoV-2 Omicron BA2, with SARS-CoV-2 Omicron BA1 and with SARS-CoV-2 Omicron BA5 was “only weak background activity” in each case.
Consider `C#CC[C@H](N)C(=O)N[C@@H](CCC(N)=O)C(=O)N[C@H]1CSSC[C@@H](C(=O)NCC(N)=O)NC(=O)[C@H](CC(C)C)NC(=O)[C@H](C(C)C)NC(=O)[C@H](Cc2ccc(O)cc2)NC(=O)[C@H](CC(C)C)NC(=O)[C@H](CC(=O)O)NC(=O)[C@H](CCC(N)=O)NC(=O)[C@H](C(C)C)NC1=O` [CP_SW3A_DS] (H-[Pra]QCVQDLYVLCG-NH2; disulfide 3-11), for which the “change of inhibitory potency after 10-fold dilution” value in the experiment with SARS-CoV-2 omicron BA.2 is reported as “dramatic loss of activity after dilution”.
Consider `C#CC[C@H](NC(=O)[C@H](CCC(N)=O)NC(=O)[C@@H]1CSCc2cc(cc(OS(=O)(=O)F)c2)CSC[C@H](NC(=O)CN)C(=O)N[C@@H](CC(C)C)C(=O)N[C@@H](C(C)C)C(=O)N[C@@H](Cc2ccc(O)cc2)C(=O)N[C@@H](CC(C)C)C(=O)N[C@@H](CC(=O)O)C(=O)N[C@@H](CCC(N)=O)C(=O)N[C@@H](C(C)C)C(=O)N1)C(N)=O` [CP_SW3A_S1] (H-GCLVYLDQVCQ[Pra]-NH2; linker 2-10 via X1), for which the “inhibition activity in MSD assay” value in experiment [1] is listed as “loss of inhibition activities”. In addition, the “antiviral activity” value in the experiment on SARS-CoV-2 Omicron BA2, with SARS-CoV-2 Omicron BA1 and with SARS-CoV-2 Omicron BA5 was “only weak background activity” in each case.
As to `C#CC[C@H](N)C(=O)N[C@@H](CCC(N)=O)C(=O)N[C@H]1CSCc2cc(cc(OS(=O)(=O)F)c2)CSC[C@@H](C(=O)NCC(N)=O)NC(=O)[C@H](C(C)C)NC(=O)[C@H](CCC(N)=O)NC(=O)[C@H](CC(=O)O)NC(=O)[C@H](CC(C)C)NC(=O)[C@H](Cc2ccc(O)cc2)NC(=O)[C@H](C(C)C)NC(=O)[C@H](CC(C)C)NC1=O` [CP_SW3A_S2] (H-[Pra]QCLVYLDQVCG-NH2; linker 3-11 via X1), in experiment [1], the “inhibition activity in MSD assay” value is given as “loss of inhibition activities”. For the same compound, the “antiviral activity” value with SARS-CoV-2 Omicron BA2, with SARS-CoV-2 Omicron BA1 and in the experiment with SARS-CoV-2 Omicron BA5 was “only weak background activity” in each case.
In the experiment on SARS-CoV-2 Omicron BA5, “Sotrovimab: monoclonal antibody targeting the spike protein of SARS-CoV-2, positive control [reference compound]” had a concentration giving a half-maximal response (EC50) of 7 µM.

For the origin of these results see PMC11580984 (bioRxiv, 2024).
